# According to patent US6506746B2, “Method for treating cognitive dysfunction” (Eli Lilly and Company, priority 1997, dated 2003):
# What was measured:
# [1] = system: elderly patients with cognitive dysfunction; assay: double-blind multicenter clinical trial in elderly patients with cognitive dysfunction; assay type: in vivo, human; conditions: 237 elderly patients (>=65 years), versus placebo; BEHAVE-AD, BPRS and CGI rating scales
# Procedure: Changes in behavioral manifestations were measured using the BEHAVE-AD, BPRS, and CGI rating scales, which are known and available to the skilled artisan.
# [2] = detection of radiolabelled compound in saliva; assay type: in vivo
# Procedure: For example, in the treatment of adult humans, dosages of from about 0.25 to 50 mg, preferably from 1 to 30 mg, and most preferably 1 to 20 mg per day may be used. A once a day dosage is normally sufficient, although divided doses may be administered. For treatment of cognitive dysfunction, a dose range of from 1 to 30 mg, preferably 1 to 20 mg per day is suitable.
# [3] = system: muscarinic cholinergic receptor; conditions: results of pharmacological studies
# 5-HT1C receptor = biological target: T1, 5-HT1C receptor (Homo sapiens, UniProt P28335); assay: 5-HT1C receptor activity
# T1 sequence (P28335 33-458): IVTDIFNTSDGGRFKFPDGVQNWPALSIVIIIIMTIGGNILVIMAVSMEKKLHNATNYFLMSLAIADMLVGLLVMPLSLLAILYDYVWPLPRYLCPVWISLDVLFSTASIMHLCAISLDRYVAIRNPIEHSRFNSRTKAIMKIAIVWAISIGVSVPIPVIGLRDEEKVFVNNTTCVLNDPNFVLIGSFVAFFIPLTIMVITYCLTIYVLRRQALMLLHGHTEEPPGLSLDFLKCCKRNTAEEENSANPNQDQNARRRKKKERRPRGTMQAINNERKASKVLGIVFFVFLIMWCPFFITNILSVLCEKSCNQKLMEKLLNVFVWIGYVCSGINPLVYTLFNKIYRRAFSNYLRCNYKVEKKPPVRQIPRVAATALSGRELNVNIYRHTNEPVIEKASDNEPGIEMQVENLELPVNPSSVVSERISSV
compound,measurement,setting,value
"Cc1cc2c(s1)Nc1ccccc1N=C2N1CCN(C)CC1 [2-methyl-4-(4-methyl-1-piperazinyl)-10H-thieno[2,3-b][1,5]benzodiazepine]",changes in behavioral manifestations,[1],can be useful for the treatment of behavioral manifestations of cognitive dysfunction
same,detection in saliva,[2],can be detected in the saliva
same,muscarinic cholinergic receptor activity,[3],has muscarinic cholinergic receptor activity
"Cc1cc2c(s1)Nc1ccccc1N=C2N1CCN(C)CC1 [anhydrous Form I compound, 2-methyl-4-(4-methyl-1-piperazinyl)-10H-thieno[2,3-b][1,5]benzodiazepine]",activity at the 5-HT1C receptor,5-HT1C receptor,active
